Results: paper PMC9151520 (Archives of Toxicology, 2022)
Where “and” joins values, the source holds several entries; their conditions need not be identical. Equal values may be shown once. Read-outs that look alike come from different tables or passages of the source.

Columns and labels:
[1] = system: p53 signaling (p53RE-bla HCT-116 cells)
[2] = system: p53 signaling (p53RE-bla HCT-116 cells); assay: cells; type: cell-based
[3] = system: p53 signaling (p53RE-bla HCT-116 cells); assay: cells; type: cell-based; remark: listed apart in the source
[4] = system: p53RE-bla HCT-116 cells
[5] = system: p53 signaling (p53RE-bla HCT-116 cells); assay: cells; settings: Homo sapiens
[6] = system: p53 signaling (p53RE-bla HCT-116 cells); assay: cells; type: cell-based; settings: for Emax: HCT-116, read-out: efficacy
[7] = rat
[8] = in vitro; settings: male, Sprague Dawley, rat, microsomes, pH 7.4
[9] = system: p53 signaling (p53RE-bla HCT-116 cells); remark: listed apart in the source
[10] = system: p53 signaling (p53RE-bla HCT-116 cells); assay: cells; settings: Homo sapiens; remark: listed apart in the source
[11] = HCT-116, read-out: p53 activation EC50, cherry pick confirmation
[12] = HCT-116, read-out: p53 activation EC50, primary screening
[13] = HCT-116, read-out: p53 activation efficacy, cherry pick confirmation

## c1ccc2c(c1)[nH]c1cnccc12 [Norharman]
[1]
  p53 activation EC50, cherry pick confirmation: inactive
  p53 activation EC50, primary screening: inactive
  p53 activation efficacy, cherry pick confirmation: inactive
  p53 activation efficacy, primary screening: inactive
[2]
  EC50: Inactive
[3]
  p53 activation EC50, cherry pick confirmation: inactive
  p53 activation efficacy, cherry pick confirmation: inactive
[3]; Homo sapiens, HCT-116, read-out: p53 activation EC50, primary screening
  EC50: 41.4 µM
[4]
  Viability EC50, cherry pick confirmation: inactive
  Viability EC50, primary screening: inactive
  Viability efficacy, cherry pick confirmation: inactive
  Viability efficacy, primary screening: inactive
[5]; HCT-116
  EC50: 28.1 µM
[5]; HCT-116, read-out: efficacy
  Emax: 73.8%
[5]; [11]
  EC50: 29.6 µM
[5]; [12]
  EC50: 32.6 µM
[5]; [13]
  Emax: 71%
[6]; Homo sapiens, HCT-116
  EC50: 20 µM
[6]; Homo sapiens
  Emax: 76.4%
[7]
  Depletion after 16 h of incubation with cells: 85.03 ± 0.42%

## Cc1cc(=O)n(-c2ccccc2)n1C [antipyrine, reference compound]
[8]
  half-life: > 120 min

## CCSC(=O)N1CCCCCC1 [Molinate]
[1]
  p53 activation EC50, cherry pick confirmation: inactive
  p53 activation EC50, primary screening: inactive
  p53 activation efficacy, cherry pick confirmation: inactive
  p53 activation efficacy, primary screening: inactive
[2]
  EC50: Inactive
[8]
  half-life: 12 ± 0.18 min
[3]
  p53 activation EC50, cherry pick confirmation: inactive
  p53 activation EC50, primary screening: inactive
  p53 activation efficacy, cherry pick confirmation: inactive
  p53 activation efficacy, primary screening: inactive
[4]
  Viability EC50, cherry pick confirmation: inactive
  Viability EC50, primary screening: inactive
  Viability efficacy, cherry pick confirmation: inactive
  Viability efficacy, primary screening: inactive
[5]; HCT-116
  EC50: 0.35 µM
[5]; HCT-116, read-out: efficacy
  Emax: 40.5%
[5]; [11]
  EC50: 0.355 µM
[5]; [12]
  EC50: 1.85 µM
[5]; [13]
  Emax: 39.9%
[5]; HCT-116, read-out: p53 activation efficacy, primary screening
  Emax: 45.3%
[6]; Homo sapiens, HCT-116
  EC50: 0.3 µM
[6]; Homo sapiens
  Emax: 44.1%
[7]
  Depletion after 16 h of incubation with cells: 97.58 ± 0.19%

## COP(=S)(OC)Oc1cc(Cl)c(I)cc1Cl [Iodenphos]
[1]
  p53 activation EC50: inactive
[2]; Homo sapiens, HCT-116, 0.5 h
  EC50: 24.2 µM
[3]
  p53 activation EC50: inactive
  p53 activation efficacy: inactive
[4]
  Viability EC50: inactive
  Viability efficacy: inactive
[5]; HCT-116
  EC50: 32.2 µM
[5]; HCT-116, read-out: efficacy
  Emax: 84.9%
[9]
  p53 activation efficacy: 81.587 and 107.715
[9]; read-out: p53 activation EC50
  EC50: 26.6 µM
[6]; Homo sapiens, HCT-116
  EC50: 37 µM
[7]
  Depletion after 16 h of incubation with cells: 99.99 ± 0%
[10]; HCT-116, read-out: p53 activation efficacy
  Emax: 54.2%

## CCOP(=S)(OCC)Oc1cc(C)nc(N(CC)CC)n1 [Pirimiphos-ethyl]
[1]
  p53 activation EC50, HLM: inactive
[1]; read-out: p53 activation EC50, HLM
  EC50: 3.88 µM
[3]
  p53 activation EC50, No MS: inactive
  p53 activation Efficacy, No MS: inactive
[4]
  Viability EC50, HLM: inactive
  Viability EC50, No MS: inactive
  Viability EC50, RLM: inactive
  Viability Efficacy, HLM: inactive
  Viability Efficacy, No MS: inactive
  Viability Efficacy, RLM: inactive
[9]
  EC50: 2.07 µM
[9]; read-out: p53 activation EC50, RLM
  EC50: 1.91 µM and 3.44 µM
[7]
  Depletion after 16 h of incubation with cells: 95.16 ± 0.46%

## O=C1CC2(CCCC2)CC(=O)N1CCCCN1CCN(c2ncccn2)CC1 [buspirone, reference compound]
[8]
  half-life: 7.2 ± 2.3 min

## CCOP(=S)(OCC)Oc1ccc([N+](=O)[O-])cc1 [Parathion]
[1]
  p53 activation EC50, HLM: inactive
[2]
  EC50: Inactive
[3]
  p53 activation EC50, No MS: inactive
  p53 activation Efficacy, No MS: inactive
[4]
  Viability EC50, HLM: inactive
  Viability EC50, No MS: inactive
  Viability EC50, RLM: inactive
  Viability Efficacy, HLM: inactive
  Viability Efficacy, No MS: inactive
  Viability Efficacy, RLM: inactive
[5]; HCT-116
  EC50: 1.11 µM
[5]; HCT-116, read-out: efficacy
  Emax: 36.3%
[6]; Homo sapiens, HCT-116
  EC50: 1.45 µM
[6]; Homo sapiens
  Emax: 35.6%
[7]
  Depletion after 16 h of incubation with cells: 98.86 ± 0.34%
[10]; HCT-116, read-out: p53 activation EC50, HLM
  EC50: 1.2 µM

## OCCN(CCO)c1nc(N2CCCCC2)c2nc(N(CCO)CCO)nc(N3CCCCC3)c2n1 [Dipyridamole, reference compound]
[2]; Homo sapiens, HCT-116, 0.5 h
  EC50: 4.36 µM
[2]; Homo sapiens, HCT-116, read-out: efficacy
  Emax: 174%
[8]
  half-life: 7.32 ± 0.59 min
[6]; Homo sapiens, HCT-116
  EC50: 5.28 µM

## CCOP(=S)(OCC)Oc1cnc2ccccc2n1 [Quinalphos]
[1]
  p53 activation EC50, cherry pick confirmation: inactive
  p53 activation efficacy, cherry pick confirmation: inactive
[2]
  EC50: Inactive
[8]
  half-life: 2.49 ± 0.04 min
[3]
  p53 activation EC50, cherry pick confirmation: inactive
  p53 activation EC50, primary screening: inactive
  p53 activation efficacy, cherry pick confirmation: inactive
  p53 activation efficacy, primary screening: inactive
[4]
  Viability EC50, cherry pick confirmation: inactive
  Viability EC50, primary screening: inactive
  Viability efficacy, cherry pick confirmation: inactive
  Viability efficacy, primary screening: inactive
[5]; HCT-116
  EC50: 9.46 µM
[5]; HCT-116, read-out: efficacy
  Emax: 32.7%
[5]; [11]
  EC50: 7.65 µM
[5]; [13]
  Emax: 34.3%
[6]
  EC50: Inactive
[7]
  Depletion after 16 h of incubation with cells: 96.66 ± 0.83%
